Assay results taken from publication PMC3366211, “Leishmanicidal Activity of Nine Novel Flavonoids from Delphinium staphisagria” (The Scientific World Journal, 2012).

Assays:
[1] = test system: L. infantum promastigotes; assay: Metabolite excretion (1H-NMR); assay type: cell-based, Leishmania infantum; settings: IC25, 96 hours, vs control
Method: (§1) Cultures of L. infantum and L. braziliensis promastigotes (initial concentration 5 × 10^5 cells/mL) received IC25 concentrations of the compounds (except for control cultures). After incubation for 96 hours at 28°C, the cells were centrifuged at 400 g for 10 min. Then supernatants were collected to determine the excreted metabolites using ^1H-NMR, and, eventually, chemical displacements were expressed in parts per million (ppm), using sodium 2,2-dimethyl-2-silapentane-5-sulphonate as the reference signal. The chemical displacements used to identify the respective metabolites were consistent with those described by Fernández-Becerra et al.

[2] = test system: L. infantum promastigotes; assay: Ultrastructural alterations (TEM); assay type: cell-based, Leishmania infantum; settings: IC25, 96 hours
Method: (§2) The parasites were cultured at a density of 5 × 10^5 cells/mL in MTL medium, and the cultures contained drugs at the IC25 concentration.
(§3) After 96 hours, those cultures were centrifuged at 400 g for 10 min, and the pellets produced were washed in PBS and then mixed with 2% (v/v) P-formaldehyde-glutaraldehyde in 0.05 M cacodylate buffer (pH 7.4) for 4 hours at 4°C. After that, the pellets were prepared for TEM employing the technique of González et al..

[3] = test system: L. infantum; assay: Infection assay in J774.2 macrophages; assay type: cell-based, Leishmania infantum; settings: IC25 concentration; for infection rate decrease, percentage of inhibition capacity: with respect to control
Method: (§4) J774.2 macrophage cells were grown under the same conditions expressed in amastigote forms assay during two days. Afterwards, the cells were infected in vitro with promastigote forms of L. infantum and L. braziliensis, at a ratio of 10 : 1. The drugs (IC25 concentrations) were added immediately after infection and were incubated for 12 hours at 37°C in 5% CO2. The nonphagocytosed parasites and the drugs were removed by washing, and then the infected cultures were grown for 10 days in fresh medium. Fresh culture medium was added every 48 h. The drug activity was determined from the percentage of infected cells and the number of amastigotes per infected cell (in treated and untreated cultures) in methanol-fixed and Giemsa-stained preparations. The percentage of infected cells and the mean number of amastigotes per infected cell were determined by analyzing 200 host cells distributed in randomly chosen microscopic fields. Values are the average of three separate determinations.

[4] = test system: L. infantum intracellular amastigote forms; assay: Intracellular amastigote forms assay in J774.2 macrophages; assay type: cell-based, Leishmania infantum; settings: for SI Intracellular amastigote forms / number of times that compound SI exceeds the reference drug SI, Intracellular amastigote forms: L. infantum; for SI Intracellular amastigote forms: IC50 macrophages/IC50 parasite form; for number of times that compound SI exceeds the reference drug SI, Intracellular amastigote forms: in brackets, reference Glucantime; for IC50: Leishmania infantum, L. infantum in J774.2 macrophages, 72 h
Method: (§5) Cells were seeded at a density of 1 × 10^4 cells/well in 24-well microplates (Nunc) with rounded coverslips on the bottom and cultured for 2 days. Afterwards the cells were infected in vitro with promastigote forms of L. infantum and L. braziliensis, at a ratio of 10 : 1 during 24 hours. The non-phagocytosed parasites were removed by washing, and then the drugs (at 1, 10, 25, 50, 100 μM) were added. Macrophages with the drugs were incubated for 72 hours at 37°C in 5% CO2.
(§6) Drug activity was determined on the basis of number of amastigotes in treated and untreated cultures in methanol-fixed and Giemsa-stained preparations. The number of amastigotes was determined by analyzing 200 host cells distributed in randomly chosen microscopic fields. The antileishmanial effect is expressed as the IC50 values are the means of three separate determinations.

[5] = test system: L. infantum axenic amastigote forms; assay: Axenic amastigote forms assay; assay type: cell-based, Leishmania infantum; settings: for SI Axenic amastigote forms: IC50 macrophages/IC50 parasite form; for IC50: Leishmania infantum, 48 hours per method (72 h); for number of times that compound SI exceeds the reference drug SI, Axenic amastigote forms: in brackets, reference Glucantime
Method: (§7) Axenic amastigotes forms of L. infantum and L. braziliensis were cultured following the methodology described previously by Moreno et al.. Thus, promastigote transformation to amastigotes was obtained after three days of culture in M199 medium (Invitrogen, Leiden, The Netherlands) supplemented with 10% heat-inactivated FCS, 1 g/L β-alanine, 100 mg/L L-asparagine, 200 mg/L sacarose, 50 mg/L sodium pyruvate, 320 mg/L malic acid, 40 mg/L fumaric acid, 70 mg/L succinic acid, 200 mg/L α-ketoglutaric acid, 300 mg/L citric acid, 1.1 g/L sodium bicarbonate, 5 g/L MES, 0.4 mg/L hemin, and 10 mg/L gentamicin pH 5.4 at 37°C. The effect of each compound against axenic amastigotes forms was tested at 48 hours using a Neubauer haemocytometric chamber. The antileishmanial effect is expressed as the IC50.

[6] = test system: L. braziliensis axenic amastigote forms; assay: Axenic amastigote forms assay; assay type: cell-based, Leishmania braziliensis; settings: for SI Axenic amastigote forms: IC50 macrophages/IC50 parasite form; for IC50: Leishmania braziliensis, 48 hours per method (72 h); for number of times that compound SI exceeds the reference drug SI, Axenic amastigote forms: in brackets, reference Glucantime
Method: as §7

[7] = test system: L. braziliensis; assay: Infection assay in J774.2 macrophages; assay type: cell-based, Leishmania braziliensis; settings: IC25 concentration; for infection rate decrease, percentage of inhibition capacity: with respect to control
Method: as §4

[8] = test system: L. braziliensis promastigotes; assay: Metabolite excretion (1H-NMR); assay type: cell-based, Leishmania braziliensis; settings: IC25, 96 hours, vs control
Method: as §1

[9] = test system: L. braziliensis intracellular amastigote forms; assay: Intracellular amastigote forms assay in J774.2 macrophages; assay type: cell-based, Leishmania braziliensis; settings: for SI Intracellular amastigote forms / number of times that compound SI exceeds the reference drug SI, Intracellular amastigote forms: L. braziliensis; for SI Intracellular amastigote forms: IC50 macrophages/IC50 parasite form; for number of times that compound SI exceeds the reference drug SI, Intracellular amastigote forms: in brackets, reference Glucantime; for IC50: Leishmania braziliensis, L. braziliensis in J774.2 macrophages, 72 h
Method: as §5, §6

[10] = test system: L. braziliensis promastigote forms; assay: Promastigote forms assay; assay type: cell-based, Leishmania braziliensis; settings: for SI Promastigote forms: IC50 macrophages/IC50 parasite form; for IC50: Leishmania braziliensis, 72 h; for number of times that compound SI exceeds the reference drug SI, Promastigote forms: in brackets, reference Glucantime
Method: (§8) The compounds obtained were dissolved in the culture medium, at dosages of 100, 50, 25, 10, and 1 μM. The effects of each compound against promastigote forms were tested at 72 hours using a Neubauer haemocytometric chamber. The antileishmanial effect is expressed as the IC50, that is, the concentration required to give 50% inhibition, calculated by linear regression analysis from the Kc values of the concentrations employed.

[11] = test system: L. infantum promastigote forms; assay: Promastigote forms assay; assay type: cell-based, Leishmania infantum; settings: for SI Promastigote forms: IC50 macrophages/IC50 parasite form; for IC50: Leishmania infantum, 72 h; for times SI exceeds the reference drug SI (all forms): extracellular and intracellular forms; for times SI exceeds the reference drug SI (all forms) / number of times that compound SI exceeds the reference drug SI, Promastigote forms: reference Glucantime; for number of times that compound SI exceeds the reference drug SI, Promastigote forms: in brackets
Method: as §8

[12] = test system: J774.2 macrophages; assay: Cytotoxicity test for macrophages (flow cytometry); assay type: cell-based, BALB/c rat; settings: Mus musculus, J774.2, 72 h, J774.2 macrophages after 72 h of culture; read-out: Macrophage toxicity IC50
Method: J774.2 macrophages (ECACC number 91051511) were originally obtained from a tumour in a female BALB/c […] in 1968. The cytotoxicity test for macrophages was performed according to the methodology of González et al.. After 72 hours of treatment, cell viability was determined by flow cytometry. Thus, 100 μL/well of propidium iodide solution ([…]) was added and incubated for 10 min at 28°C in darkness. Afterwards, 100 μL/well of fluorescein diacetate (100 ng/mL) was added and incubated under the same conditions. Finally, the cells were recovered by centrifugation at 400 g for 10 min and the precipitate washed with phosphate buffered saline (PBS). Flow cytometric analysis was performed with a FACSVantage flow cytometer (Becton Dickinson). The percentage viability was calculated in comparison with the control culture. The IC50 was calculated using linear regression analysis from the Kc values of the concentrations employed.

[13] = test system: L. braziliensis promastigotes; assay: Ultrastructural alterations (TEM); assay type: cell-based, Leishmania braziliensis; settings: IC25, 96 hours
Method: as §2, §3

IC50 [5] [µM] | IC50 [6] [µM] | IC50 [9] [µM] | IC50 [10] [µM] | SMILES | change in excreted catabolites [1] | ultrastructural alterations by TEM [2] | decrease of average number of amastigotes per infected macrophage cell [3] [%] | infection rate decrease, percentage of inhibition capacity [3] [%] | SI Intracellular amastigote forms [4] | number of times that compound SI exceeds the reference drug SI, Intracellular amastigote forms [4] | SI Axenic amastigote forms [5] | number of times that compound SI exceeds the reference drug SI, Axenic amastigote forms [5] | SI Axenic amastigote forms [6] | number of times that compound SI exceeds the reference drug SI, Axenic amastigote forms [6] | decrease of average number of amastigotes per infected macrophage cell [7] [%] | infection rate decrease, percentage of inhibition capacity [7] [%] | change in excreted catabolites [8] | SI Intracellular amastigote forms [9] | number of times that compound SI exceeds the reference drug SI, Intracellular amastigote forms [9] | SI Promastigote forms [10] | further results
30.5 ± 2.3 | 28 ± 1.6 | 30.4 ± 2.7 | 31.3 ± 3 | CC(=O)OC[C@H]1O[C@@H](Oc2cc(OC(C)=O)c3c(=O)c(O[C@@H]4O[C@H](COC(C)=O)[C@@H](OC(C)=O)[C@H](OC(C)=O)[C@H]4OC(C)=O)c(-c4ccc(OC(C)=O)cc4)oc3c2)[C@H](OC(C)=O)[C@@H](OC(C)=O)[C@@H]1OC(C)=O [Compound 6] | an increase in the excretion of succinate, and acetate, followed by malate, alanine, lactate and ethanol | induced empty vacuoles, lipid vacuoles, and a large number of electrodense vesicles | 24 | 71 | 24.8 | 50 | >32.8 | 55 | >35.7 | 71 | 69 | 82 | decreases in the excretion of acetate | >32.9 | 66 | >31.9 | number of times that compound SI exceeds the reference drug SI, Promastigote forms [10]: 53; SI Promastigote forms [11]: >43.3; IC50 [11]: 23.1 ± 4.6 µM; times SI exceeds the reference drug SI (all forms) [11]: more than 50 times; number of times that compound SI exceeds the reference drug SI, Promastigote forms [11]: 54; IC50 [12]: > 1000 µM
19.4 ± 1.4 | 19.5 ± 0.8 | 33.9 ± 3.5 | 21.1 ± 1.7 | C[C@H]1O[C@H](Oc2cc(O)c3c(=O)c(O[C@@H]4O[C@H](CO)[C@@H](O)[C@H](O)[C@H]4O)c(-c4ccc(O)c(O)c4)oc3c2)[C@@H](O)[C@@H](O)[C@@H]1O [Compound 7, petiolaroside] | an increase in the production of malate, succinate, ethanol, and lactate, but a decrease of excreted acetate and alanine levels | no induction of substantial alterations | 49 | 77 | >36.0 | 72 | >51.5 | 86 | >51.3 | 103 | 55 | 69 | decreases in the excretion of acetate | >29.5 | 59 | >47.4 | IC50 [4]: 27.8 ± 1.4 µM; ultrastructural alterations by TEM [13]: All these changes occurred; number of times that compound SI exceeds the reference drug SI, Promastigote forms [10]: 79; SI Promastigote forms [11]: >40.8; IC50 [11]: 24.5 ± 1.1 µM; times SI exceeds the reference drug SI (all forms) [11]: more than 50 times; number of times that compound SI exceeds the reference drug SI, Promastigote forms [11]: 51; IC50 [12]: > 1000 µM
18.4 ± 1.3 | 25.5 ± 0.7 | 20.1 ± 1.7 | 29 ± 1.5 | CC(=O)O[C@H]1[C@H](Oc2c(-c3ccc(O)c(O)c3)oc3cc(O[C@@H]4O[C@@H](C)[C@H](O)[C@@H](O)[C@H]4O)cc(O)c3c2=O)O[C@H](CO)[C@@H](O)[C@@H]1O [Compound 8, 2′′-acetylpetiolaroside] | an increase in the excretion of succinate, and acetate, followed by malate, alanine, lactate and ethanol | many of the parasites adopted distorted shapes with distorted cytoplasm | 78 | 95 | >31.2 | 62 | >54.3 | 91 | >39.2 | 78 | 82 | 88 | decreases in the excretion of acetate | >49.8 | 100 | >34.5 | IC50 [4]: 32.1 ± 2 µM; ultrastructural alterations by TEM [13]: induced changes in the shape of parasites, with them showing completely altered forms; number of times that compound SI exceeds the reference drug SI, Promastigote forms [10]: 58; SI Promastigote forms [11]: 52.4; times SI exceeds the reference drug SI (all forms) [11]: more than 50 times; number of times that compound SI exceeds the reference drug SI, Promastigote forms [11]: 66; IC50 [12]: > 1000 µM
